From patent US10093627B2, “Tetrahydroquinoline derivatives and their use as Epac inhibitors” (Institut National de la Sante et de la Recherche Medicale …, priority 2012, dated 2018)

Legend:
[1] = system: Epac1-induced Rap1 activation in HEK293 cells; assay: Epac1-induced Rap1 activation, Rap1-GTP pull-down in HEK293 cells; assay type: cell-based; conditions: HEK293 cells overexpressing Epac1 vs empty vector; FIG. 2A
Method: HEK293 cells were transfected with either pcDNA3 control vector or Epac1 (see FIG. 2A).
HEK293 cells were transfected with Epac1 and 24 h after transfection, cells were preincubated or not with CE3F4 for 30 min and were then treated or not with Sp-007 (10 μM) for 10 min (see FIG. 2B).
HEK293 cells overexpressing β1AR (Beta-1 adrenergic receptors) and transfected with Epac1 were pretreated or not with CE3F4 and stimulated or not with Iso (10 μM) for 10 min (see FIG. 2C).
Amounts of Rap1-GTP were determined by pull-down assays (see Material and Methods). The bar graph represents the mean±S.E.M. of 5 (FIG. 2A, 2B) or 3 (FIG. 2C) independent experiments. Results are expressed as the percentage of unstimulated control cells.
Ras and Rap1 pull-down experiments were performed using a GST fusion protein containing respectively the Ras binding domain of Raf1-RBD and the Rap1 binding domain of Ral-GDS as previously described (Métrich et al., 2008). Cells were starved for 1 h before stimulation in MEM free with penicillin-streptomycin (1%). After stimulation, cells were lysed in RIPA buffer (50 mM Tris-HCl, pH 7.5; 500 mM NaCl; 20 mM MgCl2; 0.5% deoxycholic acid; 0.1% SDS; 1% Triton X-100; 1 mM PMSF; protease and phosphatase inhibitors) and 500 μg of protein were incubated with either GST-Raf1-RBD (for Ras) or Ral-GDS (for Rap1) coupled to glutathione-Sepharose beads (Amersham Biosciences) for 1h at 4° C. Beads were then washed three times in washing buffer (50 mM Tris-HCl, pH 7.5; 150 mM NaCl, 20 mM MgCl2, 1% Triton X-100; 0.1 mM PMSF; protease and phosphatase inhibitors). Rap1-GTP or Ras samples and corresponding total lysates were separated on SDS-PAGE gels and transferred onto a polyvinylidene difluoride (PVDF) membrane (Amersham Pharmacia Biotech).

Epac1 [2] = target: T1, Epac1 (Homo sapiens, UniProt O95398); assay: In vitro GEF activity (initial velocity of GDP exchange on Rap1A) of Epac1; assay type: biochemical; conditions: for EC50: Epac1 GEF activity toward Rap1, Epac1 activated by 20 μM 007, mean of n=4 to 9 independent determinations; for Dose-response curve of inhibition of 007-activated Epac1 GEF activity, comparison between compounds: Epac1 activated by 20 μM 007, FIG. 5; for Antagonism of cAMP-activated Epac1 GEF activity: compound 30 μM, 300 μM cAMP, FIG. 6C
T1 construct: Recombinant human Epac1 (residues 149-881), deleted of its Dishevelled, Egl-10, and Pleckstrin (DEP) domain; made in house
T1 sequence (O95398 149-881 isoform O95398-3): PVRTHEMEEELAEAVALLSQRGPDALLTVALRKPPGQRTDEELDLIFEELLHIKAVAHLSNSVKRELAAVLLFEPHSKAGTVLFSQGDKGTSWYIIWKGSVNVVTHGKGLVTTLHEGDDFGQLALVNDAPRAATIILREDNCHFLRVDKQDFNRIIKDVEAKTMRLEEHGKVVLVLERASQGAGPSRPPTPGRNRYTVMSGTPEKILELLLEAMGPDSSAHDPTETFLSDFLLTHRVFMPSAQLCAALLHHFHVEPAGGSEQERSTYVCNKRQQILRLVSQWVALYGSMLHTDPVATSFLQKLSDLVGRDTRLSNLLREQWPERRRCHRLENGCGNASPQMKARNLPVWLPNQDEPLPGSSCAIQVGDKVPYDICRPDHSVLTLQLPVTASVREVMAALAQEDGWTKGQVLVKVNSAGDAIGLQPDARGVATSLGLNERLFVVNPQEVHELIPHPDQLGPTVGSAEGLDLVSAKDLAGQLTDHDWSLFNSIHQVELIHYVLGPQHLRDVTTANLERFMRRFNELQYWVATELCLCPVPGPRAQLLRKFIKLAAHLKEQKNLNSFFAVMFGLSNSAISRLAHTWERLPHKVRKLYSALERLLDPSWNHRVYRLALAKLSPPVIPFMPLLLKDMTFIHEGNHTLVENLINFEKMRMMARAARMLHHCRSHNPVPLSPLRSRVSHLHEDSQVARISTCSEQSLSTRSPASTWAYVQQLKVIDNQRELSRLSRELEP
Method: Protein NCBI Reference Sequences for human Epac1 and Epac2 are NP_006096 and NP_008954, respectively. Recombinant human Epac1 (residues 149-881), deleted of its Dishevelled, Egl-10, and Pleckstrin (DEP) domain, and human Rap1A were produced with GST as a fusion tag (D. Courilleau et al., Identification of a tetrahydroquinoline analog as a pharmacological inhibitor of the cAMP-binding protein Epac, J. Biol. Chem. 287 (2012) 44192-44202).
(§1) In vitro GDP exchange catalyzed by Epac was measured using purified recombinant Epac isoforms and Rap1A loaded with Bodipy-GDP, as described in D. Courilleau, et al (above mentioned). The GEF activity of Epac proteins was initiated by injection of the agonist. Stock solutions of CE3F4 and its analogs (12 mM in 100% DMSO) were kept at −20° C. and were diluted in assay buffer (0.67% final DMSO concentration) just before use for GDP exchange assays. The release of Bodipy-GDP was measured in real time as the decay of fluorescence. A single exponential was fit to the time-course data using the Graphpad Prism program. The initial velocity (Vi) of GDP exchange on Rap1 was calculated as described in D. Courilleau et al.).
(§2) Data are expressed as mean±S.D. Differences in quantitative variables were examined by unpaired one- or two-tailed Student's t test. EC50 and IC50 values were computed according to a four-parameters dose-response model and compared on the basis of the extra sum-of square F test, using Graphpad Prism. Two-tailed Wilcoxon matched-pair signed rank tests were performed using GraphPad Prism.

Epac2(B) = target: T2, Epac2(B) (Homo sapiens, UniProt Q8WZA2); assay: In vitro GEF activity (initial velocity of GDP exchange on Rap1A) of Epac2(B); assay type: biochemical; conditions: for Antagonism of cAMP-activated Epac2(B) GEF activity: compound 30 μM, 300 μM cAMP, FIG. 6C
T2 construct: Human Epac2(B) (amino acids 283-1011) lacks the first 283 amino acids of Epac2; made in house; host or cells: Escherichia coli Rosetta 2(DE3)
T2 sequence (Q8WZA2 283-1011): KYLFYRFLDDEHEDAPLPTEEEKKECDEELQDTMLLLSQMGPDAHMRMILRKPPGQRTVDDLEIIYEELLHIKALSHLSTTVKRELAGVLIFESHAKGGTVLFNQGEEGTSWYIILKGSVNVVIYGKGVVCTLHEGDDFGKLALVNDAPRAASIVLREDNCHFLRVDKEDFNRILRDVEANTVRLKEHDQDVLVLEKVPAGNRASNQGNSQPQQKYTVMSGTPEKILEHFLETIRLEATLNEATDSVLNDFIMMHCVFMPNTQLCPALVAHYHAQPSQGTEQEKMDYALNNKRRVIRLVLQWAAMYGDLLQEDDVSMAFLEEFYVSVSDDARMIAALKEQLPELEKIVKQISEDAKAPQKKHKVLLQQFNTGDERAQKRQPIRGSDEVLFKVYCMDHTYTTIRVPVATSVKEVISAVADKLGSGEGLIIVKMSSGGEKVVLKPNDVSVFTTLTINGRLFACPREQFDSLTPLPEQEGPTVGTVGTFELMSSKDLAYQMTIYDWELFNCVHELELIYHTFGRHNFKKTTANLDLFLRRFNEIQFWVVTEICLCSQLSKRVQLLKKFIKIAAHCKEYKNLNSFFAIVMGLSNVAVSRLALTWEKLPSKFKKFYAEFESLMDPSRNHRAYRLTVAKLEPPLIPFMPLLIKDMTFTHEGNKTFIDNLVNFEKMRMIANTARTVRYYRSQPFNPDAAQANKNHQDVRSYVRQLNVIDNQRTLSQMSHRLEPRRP
Description: Human Epac2(AB) (amino acids 43-1011) carries both the CNB-A and the CNB-B domains. Human Epac2(B) (amino acids 283-1011) lacks the first 283 amino acids of Epac2. It is therefore deleted of its CNB-A and DEP domains, but retains the CNB-B domain and the full catalytic region. Epac2(AB) was obtained by HindIII/NotI restriction and Epac2(B) was obtained by Ssp1/Not1 restriction of a human Epac2A cDNA (a gift from Ann M Graybiel, Department of Brain and Cognitive Sciences, MIT, Cambridge). Both cDNA fragments were inserted into pET41a (Novagen), expressed in Escherichia coli Rosetta 2(DE3) (Novagen), and the GST-tagged fusion proteins were purified by nickel-nitrilotriacetic acid beads (Qiagen), as described in D. Courilleau, et al., Identification of a tetrahydroquinoline analog as a pharmacological inhibitor of the cAMP-binding protein Epac, J. Biol. Chem. 287 (2012) 44192-44202).
as §1, §2

Epac1 [3] = target: T1, Epac1; assay: Epac1 nucleotide exchange activity, multipoint (time-course) method, bGDP-loaded GST-Rap1A; assay type: biochemical; conditions: 25 μM compound 009; 2 μM compound 007; FIG. 1
Method: Epac1 nucleotide exchange activity was measured: • in the absence of compound 007, • or in the presence of 2 μM of compound 007, either alone or with 25 μM of compound 009, • or with 20 μM of CE3F4.
Variations of RFU (Relative Fluorescence Units) were studied as a function of time and fitted to single exponentials. Reported values are mean±SEM (n=3). (see Materiel and Methods).
Concerning FIG. 1, a “multipoint” (time-course) method was used. All components except the agonist (007) were mixed in a well and the exchange activity of Epac1 was initiated by injection of the agonist. GST-Rapt was preloaded with a fluorescent derivative of GDP, and the Epac1-catalyzed nucleotide exchange was measured using a large excess of non-fluorescent GDP, by taking advantage of the spectroscopic difference between free and Rap1-bound fluorescently labeled GDP. The principle of the method is similar to that reported in particular by Van den Berghe et al. (1997; Oncogene 15, 845), except that Bodipy FL-labeled GDP (bGDP) was used here, rather than 2′,3′-bis(O)—N-methylanthraniloyl-GDP (mant-GDP). […]

Row | SMILES | Antagonism of cAMP-activated Epac1 GEF activity (Epac1 [2]) | Antagonism of cAMP-activated Epac2(B) GEF activity (Epac2(B)) | also measured
1 | CO[C@H]1C2OP(O)(=S)OC[C@H]2O[C@H]1n1c(Sc2ccc(Cl)cc2)nc2c(N)ncnc21 (stereo partly shown) [Sp-007, Sp-8-pCPT-2′-O-Me-cAMPS, reference compound] |  |  | Rap1 activation (Rap1-GTP/Total Rap1) by agonist [1]: robust activation of Rap1
2 | C[C@@H]1CCc2c(cc(Br)c(F)c2Br)N1C=O [(R)-CE3F4] |  |  | IC50 smaller than that of racemic CE3F4 (Epac1 GEF activity) (Epac1 [2]; 007-activated Epac1): about 2 fold; IC50 smaller than the IC50 values of (S)-CE3F4 and compound f) (Epac1 GEF activity) (Epac1 [2]; 007-activated Epac1): about 10 fold; EC50 (Epac1 [2]): 5.8 µM; Dose-response curve of inhibition of 007-activated Epac1 GEF activity, comparison between compounds (Epac1 [2]): more potent Epac inhibitor; IC50 (Epac1 [2]; Epac1 activated by 300 μM cAMP): 4.2 µM; IC50 (Epac2(B); Epac2(B) activated by 300 μM cAMP): 44 µM
3 | CC1CCc2c(ccc(F)c2C=O)N1C=O (stereo not shown) [d), reference compound] | no significant inhibitory activity | no significant inhibitory activity | 
4 | CC(=O)N1c2cc(Br)c(F)c(Br)c2CCC1C (stereo not shown) [g)] | antagonistic properties |  | 
5 | CC1CCc2cc(F)c(Br)cc2N1C=O (stereo not shown) [b), reference compound] | no significant inhibitory activity | no significant inhibitory activity | 
6 | CC1CCc2c(Br)cc(Br)cc2N1C=O (stereo not shown) [e)] | antagonistic properties | antagonistic properties | 
7 | CC1CCc2c(cc(Br)c(F)c2Br)N1 (stereo not shown) [h)] | antagonistic properties |  | 
8 | CC1CCc2c(ccc(F)c2Br)N1C=O (stereo not shown) [a)] | antagonistic properties | antagonistic properties | 
9 | Nc1nc2c(nc(Sc3ccc(Cl)cc3)n2[C@@H]2O[C@@H]3COP(=O)(O)O[C@H]3[C@H]2O)c(=O)[nH]1 [Compound 009, 8-(4-chlorophenylthio)-guanosine-3′,5′-cyclic monophosphate, reference compound] |  |  | Inhibition of the exchange reaction induced by Epac1 plus 007 (Epac1 [3]): inhibitory effect
10 | O=CN1CCCc2c1cc(Br)c(F)c2Br [Compound f)] | antagonistic properties | antagonistic properties | EC50 (Epac1 [2]): 50 µM; Dose-response curve of inhibition of 007-activated Epac1 GEF activity, comparison between compounds (Epac1 [2]): not significantly different
